The values that follow come from US9200008B2 (ASKA PHARMACEUTICAL CO., LTD., priority 2010, dated 2015).

The experiment deals with Human prostate cancer cell lines (PC-3 cells). The experiment in a line: Measurement of cell death-inducing activity (Test Example 1). The experiment is classed as cell-based. The following applies: PC-3, 48 h, 48 hours after addition, tested at 10, 1, 0.1, 0.025 and 0.00625 μmol/L, qualitative evaluation of 10 fields, read-out: Concentration showing the cell death-inducing activity (cell death-inducing rate not less than 40%). Summed up:
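PC-3 cells seeded at 1×10^5 cells/well and grown 48 h at 37 °C, 5% CO2, then exposed to compound at 10, 1, 0.1, 0.025 and 0.00625 μmol/L (DMSO control) for a further 48 h. Activity was called where cell death-inducing rate was not less than 40%.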

As for `COc1cc(Cl)ccc1-c1cc(NC(=O)OCc2ccc3c(c2)ncn3C)n(C)n1` [Example 9-221], the minimal effective concentration is 0.00625 µM.
Turning to `Cc1ccccc1-c1nc(C)c(COC(=O)Nc2ccc3c(c2)ncn3C)s1` [Example 13-1, (1-Methyl-1H-benzimidazol-5-yl)carbamic acid 4-methyl-2-(2-methylphenyl)thiazol-5-ylmethyl ester], the minimal effective concentration worked out at 0.1 µM.
Next, `Cc1cc(/C=N/NC(=O)c2sc(-c3ccc(Cl)cc3)nc2C(F)(F)F)cc(C)c1O` [Example 23-19]: 10 µM.
On to `CCn1nc(-c2ccc(C)cc2OC)cc1COC(=O)Nc1ccc2c(c1)ncn2CC` [Example 13-91], for which the minimal effective concentration stood at 0.1 µM.
As to `COc1ccc(/C=N/NC(=O)c2cc(-c3ccc(Cl)cc3)oc2C)cc1O` [Example 23-166, 5-(4-Chlorophenyl)-2-methylfuran-3-carboxylic acid [1-(3-hydroxy-4-methoxyphenyl)methylidene]hydrazide], the minimal effective concentration was 1 µM.
As to `COc1ccc(-c2cc(NC(=O)OCc3ccc4c(c3)ncn4C)n(C)n2)c(OC)c1` [Example 9-230], the minimal effective concentration was 0.025 µM.
As for `COc1ccc(/C=N/NC(=O)c2oc(-c3ccccc3OC)nc2C)cc1C` [Example 26-3], the minimal effective concentration was 10 µM.
Consider `CCc1nc(-c2ccc(Cl)cc2OC)sc1NC(=O)OCc1ccc2c(c1)nnn2CC` [Example 9-160], for which the minimal effective concentration was 0.025 µM.
On to `CCn1ncc2cc(COC(=O)Nc3sc(-c4ccc(F)cc4C)nc3C)ccc21` [Example 9-140], for which the minimal effective concentration came to 0.025 µM.
In the case of `COc1cc(Cl)ccc1-c1nn(C)c(NC(=O)OCc2ccc3c(c2)ncn3C)c1C` [Example 9-311], the minimal effective concentration was found to be 10 µM.
Take `CCn1cnc2cc(COC(=O)Nc3cc(-c4ccc(F)cc4OC)nn3C)ccc21` [Example 9-219]: the minimal effective concentration turned out to be 0.025 µM.
Consider `CCn1ncc2cc(NC(=O)OCc3sc(-c4ccc(C)cc4C)nc3C)ccc21` [Example 13-45], for which the minimal effective concentration was found to be 0.1 µM.
The figure for `Cc1nc(-c2ccc(Cl)cc2)sc1C(=O)N/N=C/c1ccccc1O` [Example 23-59] is 10 µM; for `CCn1cnc2cc(NC(=O)OCc3sc(-c4ccc(F)cc4C)nc3C)ccc21` [Example 13-16] it is 0.025 µM.
Consider `Cc1ccc(-c2cc(NC(=O)OCc3ccc4c(c3)nc3n4CCC3)n(C)n2)c(C)c1` [Example 9-260], for which the minimal effective concentration came out at 0.025 µM.
For `COc1cc(C)ccc1-c1cc(COC(=O)Nc2ccc3c(c2)nc2n3CCC2)n(C)n1` [Example 13-112], the minimal effective concentration is 0.00625 µM.
The figure for `Cc1cccnc1-c1nc(C)c(C(=O)N/N=C/c2cc(C)c(O)c(C)c2)s1` [Example 23-119] is 10 µM; for `COc1cc(Cl)ccc1-c1cc(C(=O)N/N=C/c2ccc3c(c2)ncn3C)[nH]n1` [Example 22-10] it is 0.1 µM; for `Cc1ccc(-c2nc(C)c(NC(=O)OCc3ccc4c(c3)nc3n4CCC(C)C3)s2)c(C)c1` (stereo not shown) [Example 9-122] it is 1 µM.
`Cc1ccc(-c2nc(C)c(NC(=O)OCc3ccc4c(c3)CCO4)s2)c(C)c1` [Example 9-8]: the minimal effective concentration worked out at 10 µM.
As for `CCc1nc(-c2ccc(C)cc2C)sc1NC(=O)OCc1ccc2nn(C)cc2c1` [Example 9-366], the minimal effective concentration was 0.1 µM.
As to `Cc1cc(/C=N/NC(=O)c2sc(-c3ccc(Cl)cc3)nc2C)ccc1O` [Example 23-11], the minimal effective concentration came out at 10 µM.
As to `Cc1nc(-c2ccc(Cl)cc2)sc1C(=O)N/N=C/c1ccc2c(c1)CCO2` [Example 23-152], the minimal effective concentration turned out to be 10 µM.
For the molecule `COc1ccc(/C=N/NC(=O)c2oc(-c3ccccc3OC)nc2C)cc1O` [Example 26-2, 2-(2-Methoxyphenyl)-4-methyloxazole-5-carboxylic acid[N′-(3-hydroxy-4-methoxylphenyl)methylidene]hydrazide], the minimal effective concentration was 10 µM.
In the case of `COc1ccc(/C=N/NC(=O)c2sc(-c3ccccc3C)nc2C)cc1O` [Example 23-12], the minimal effective concentration is 0.1 µM.
On to `CCn1nc(-c2ccc(Cl)cc2OC)cc1COC(=O)Nc1ccc2c(c1)nc1n2CCC1` [Example 13-109], for which the minimal effective concentration came out at 0.00625 µM.
Consider `COc1ccc(-c2cc(NC(=O)OCc3ccc4c(c3)ncn4C)n(C)n2)cc1OC` [Example 9-231], for which the minimal effective concentration was 1 µM.
Next, `Cc1nc(-c2ccc(F)cc2Cl)sc1COC(=O)Nc1ccc2c(c1)nc1n2CCC1` [Example 13-30]: 0.1 µM.
`Cc1cc(Cl)ccc1-c1nc(C)c(NC(=O)OCc2ccc3c(c2)nc(C)n3C)s1` [Example 9-81]: the minimal effective concentration was 0.025 µM.
As to `COc1ccccc1-c1nc(C)c(C(=O)N/N=C/c2ccc3c(c2)OCCN3C)s1` [Example 23-98], the minimal effective concentration amounted to 0.1 µM.
Turning to `CCn1nc(-c2ccc(F)cc2OC)cc1COC(=O)Nc1ccc2c(c1)nc1n2CCOC1` [Example 13-98], the minimal effective concentration was determined as 0.025 µM.
Regarding `COc1ccc(/C=N/NC(=O)c2sc(-c3sc(C)nc3C)nc2C)cc1O` [Example 23-134], the minimal effective concentration is 1 µM.
The figure for `CCc1nc(-c2ccc(Cl)cc2OC)sc1NC(=O)OCc1ccc2c(c1)ncn2C` [Example 9-181] is 0.00625 µM; for `CCn1nc(-c2ccc(C)cc2OC)cc1COC(=O)Nc1ccc2c(c1)nc1n2CCCC1` [Example 13-121] it is 0.025 µM; for `COc1ccc(/C=N/NC(=O)c2cc(-c3ccc(Cl)cc3OC)n[nH]2)cc1O` [Example 22-8] it is 1 µM.
Next, `COc1ccccc1-c1cc(COC(=O)Nc2ccc3c(c2)nc2n3CCC2)n(C)n1` [Example 13-105]: 0.025 µM.
Consider `COc1cc(Cl)ccc1-c1nc(C)c(C(=O)N/N=C/c2ccc(O)c(O)c2)s1` [Example 23-77], for which the minimal effective concentration was 1 µM.
As for `CCc1nc(-c2ccccc2OC)sc1NC(=O)OCc1ccc2c(c1)ncn2CC` [Example 9-162], the minimal effective concentration is 0.1 µM.
Turning to `Cc1ccc(-c2nc(C)c(NC(=O)OCc3ccc4c(c3)ncn4C)s2)c(C)c1` [Example 9-42], the minimal effective concentration came to 0.00625 µM.
Consider `Cc1nc(-c2ccc(F)cc2Cl)sc1NC(=O)OCc1ccc2c(c1)nnn2C` [Example 9-18], for which the minimal effective concentration worked out at 0.1 µM.
As for `Cc1nc(-c2ccc(F)cc2F)sc1NC(=O)OCc1ccc2c(c1)ncn2C` [Example 9-46], the minimal effective concentration stood at 0.1 µM.
Next, `COc1ccc(/C=N/NC(=O)c2sc(-c3cc(C)ccc3C)nc2C)cc1O` [Example 23-126]: 1 µM; `CCc1nc(-c2ccc(C)cc2C)sc1NC(=O)OCc1ccc2c(c1)nc(C)n2C` [Example 9-375]: 0.1 µM; `CCn1nc(-c2ccc(Cl)cc2OC)cc1NC(=O)OCc1ccc2c(c1)nc1n2CCC1` [Example 9-259]: 0.025 µM.
For the molecule `Cc1cccc(-c2nc(C)c(C(=O)N/N=C/c3ccc4c(c3)OCO4)s2)c1C` [Example 23-43], the minimal effective concentration worked out at 1 µM.
Consider `COc1ccc(/C=N/NC(=O)c2sc(-c3ccccc3OC)nc2C)cc1B(O)O` [Example 23-160], for which the minimal effective concentration came out at 0.1 µM.
Turning to `COc1cc(Cl)ccc1-c1cc(C(=O)N/N=C/c2ccc3c(c2)ncn3C)n(C)n1` [Example 21-25], the minimal effective concentration was found to be 0.1 µM.
With `COc1cc(Cl)ccc1-c1cc(COC(=O)Nc2ccc3c(c2)nc2n3CCCC2)n(C)n1` [Example 13-118], the minimal effective concentration stood at 0.00625 µM.
In the case of `COc1ccc(CN(C)NC(=O)c2sc(-c3ccc(Cl)cc3OC)nc2C)cc1` [Example 16-1, 2-(4-Chloro-2-methoxyphenyl)-4-methylthiazole-5-carboxylic acid N′-(4-methoxybenzyl)-N′-methyl hydrazide], the minimal effective concentration came to 0.1 µM.
Consider `CCc1nc(-c2ccc(C)cc2OC)sc1NC(=O)OCc1ccc2c(c1)nc1n2CCCC1` [Example 9-353], for which the minimal effective concentration was 0.1 µM.
Next, `O=C(N/N=C/c1ccc([N+](=O)[O-])c(O)c1)c1cc(-c2ccc(Cl)cc2Cl)n[nH]1` [Example 21-15]: 10 µM.
As to `Cc1ccc(-c2nc(C)c(NC(=O)OCc3ccc4c(c3)nc3n4CCCC3)s2)c(C)c1` [Example 9-113], the minimal effective concentration came to 0.025 µM.
On to `CCn1nc(-c2ccc(F)cc2OC)cc1COC(=O)Nc1ccc2c(c1)nc1n2CCC1` [Example 13-107], for which the minimal effective concentration was found to be 0.025 µM.
On to `COc1cc(Cl)ccc1-c1nc(C)c(COC(=O)Nc2ccc3c(c2)nc2n3CCCC2)s1` [Example 13-31], for which the minimal effective concentration was found to be 1 µM.
With `CCc1ccccc1-c1nc(C)c(NC(=O)OCc2ccc3c(c2)ncn3CC)s1` [Example 9-56], the minimal effective concentration came out at 0.025 µM.
As for `Cc1cc(/C=N/NC(=O)c2snc(-c3ccc(Cl)cc3Cl)c2N)ccc1O` [Example 27-14, 4-Amino-3-(2,4-dichlorophenyl)isothiazole-5-carboxylic acid[1-(4-hydroxy-3-methylphenyl)methylidene]hydrazide], the minimal effective concentration worked out at 10 µM.
Take `COc1cc(Cl)ccc1-c1nc(C)c(COC(=O)Nc2ccc3nn(C)cc3c2)s1` [Example 13-46]: the minimal effective concentration was found to be 10 µM.
Consider `COc1cc(Cl)ccc1-c1nc(C)c(COC(=O)Nc2ccc3c(cnn3C)c2)s1` [Example 13-41], for which the minimal effective concentration is 1 µM.
The figure for `Cc1ccc(-c2nc(C3CC3)c(NC(=O)OCc3ccc4c(c3)ncn4C)s2)c(C)c1` [Example 9-185] is 0.1 µM.
Take `COc1cc(C)ccc1-c1nc(C)c(NC(=O)OCc2ccc3c(c2)nc2n3CCCC2)s1` [Example 9-112]: the minimal effective concentration is 0.1 µM.
As for `CCn1cnc2cc(NC(=O)OCc3cc(-c4ccc(F)cc4OC)nn3C)ccc21` [Example 13-82], the minimal effective concentration was found to be 0.025 µM.
